# The kinase profiling compilation of Christmann-Franck et al. (2016)
# How the values were obtained:
# Experiment in all cases: radiometric filter-binding kinase assay
# BTK (human) = BTK (human) (UniProt Q06187)
# CDK2 CCNA2 (human) = CDK2 CCNA2 (human) (UniProt P20248+P24941)
# CHEK1 (human) = CHEK1 (human) (UniProt O14757)
# CSNK2A1 (human) = CSNK2A1 (human) (UniProt P68400)
# EEF2K (human) = EEF2K (human) (UniProt O00418)
# IKBKB (human) = IKBKB (human) (UniProt O14920)
# INSRR (human) = INSRR (human) (UniProt P14616)
# MAP2K1 (human) = MAP2K1 (human) (UniProt Q02750)
# MAPK9 (human) = MAPK9 (human) (UniProt P45984)
# MAPKAPK2 (human) = MAPKAPK2 (human) (UniProt P49137)
# MARK3 (human) = MARK3 (human) (UniProt P27448)
# MKNK2 (human) = MKNK2 (human) (UniProt Q9HBH9)
# MYLK (human) = MYLK (human) (UniProt Q15746)
# NEK6 (human) = NEK6 (human) (UniProt Q9HC98)
# PAK6 (human) = PAK6 (human) (UniProt Q9NQU5)
# PIM1 (human) = PIM1 (human) (UniProt P11309)
# PIM2 (human) = PIM2 (human) (UniProt Q9P1W9)
# PIM3 (human) = PIM3 (human) (UniProt Q86V86)
# PKN2 (human) = PKN2 (human) (UniProt Q16513)
# RPS6KA5 KD1 KD2 (human) = RPS6KA5 KD1 KD2 (human) (UniProt O75582); details: compound 10.0 µM
# [1] = tested on: RPS6KB1 (human), P23443 [T412E]
# SRPK1 (human) = SRPK1 (human) (UniProt Q96SB4)
# STK3 (human) = STK3 (human) (UniProt Q13188)
# TBK1 (human) = TBK1 (human) (UniProt Q9UHD2)
# YES1 (human) = YES1 (human) (UniProt P07947)
# Chain of PAK6 (human) (Q9NQU5 whole entry, looked up): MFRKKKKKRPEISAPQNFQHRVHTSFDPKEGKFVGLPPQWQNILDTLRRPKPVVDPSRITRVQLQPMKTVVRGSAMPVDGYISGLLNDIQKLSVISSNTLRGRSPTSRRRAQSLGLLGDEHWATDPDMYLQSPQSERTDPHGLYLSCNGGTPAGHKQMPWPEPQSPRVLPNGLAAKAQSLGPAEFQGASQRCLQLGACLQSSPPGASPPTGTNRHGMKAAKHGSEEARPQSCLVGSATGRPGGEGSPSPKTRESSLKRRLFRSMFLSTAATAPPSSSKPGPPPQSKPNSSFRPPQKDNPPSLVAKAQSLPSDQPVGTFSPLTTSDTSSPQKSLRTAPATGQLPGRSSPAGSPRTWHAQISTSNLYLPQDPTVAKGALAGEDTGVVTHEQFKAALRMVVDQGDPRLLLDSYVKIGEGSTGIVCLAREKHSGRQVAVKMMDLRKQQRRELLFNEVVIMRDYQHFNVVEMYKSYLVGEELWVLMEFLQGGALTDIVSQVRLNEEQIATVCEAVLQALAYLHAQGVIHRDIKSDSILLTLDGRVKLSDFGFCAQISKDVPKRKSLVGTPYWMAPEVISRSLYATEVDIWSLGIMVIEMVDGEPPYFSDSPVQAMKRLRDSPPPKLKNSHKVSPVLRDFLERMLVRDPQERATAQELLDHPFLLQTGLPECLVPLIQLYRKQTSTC
# Chain of MYLK (human) (Q15746 whole entry, looked up): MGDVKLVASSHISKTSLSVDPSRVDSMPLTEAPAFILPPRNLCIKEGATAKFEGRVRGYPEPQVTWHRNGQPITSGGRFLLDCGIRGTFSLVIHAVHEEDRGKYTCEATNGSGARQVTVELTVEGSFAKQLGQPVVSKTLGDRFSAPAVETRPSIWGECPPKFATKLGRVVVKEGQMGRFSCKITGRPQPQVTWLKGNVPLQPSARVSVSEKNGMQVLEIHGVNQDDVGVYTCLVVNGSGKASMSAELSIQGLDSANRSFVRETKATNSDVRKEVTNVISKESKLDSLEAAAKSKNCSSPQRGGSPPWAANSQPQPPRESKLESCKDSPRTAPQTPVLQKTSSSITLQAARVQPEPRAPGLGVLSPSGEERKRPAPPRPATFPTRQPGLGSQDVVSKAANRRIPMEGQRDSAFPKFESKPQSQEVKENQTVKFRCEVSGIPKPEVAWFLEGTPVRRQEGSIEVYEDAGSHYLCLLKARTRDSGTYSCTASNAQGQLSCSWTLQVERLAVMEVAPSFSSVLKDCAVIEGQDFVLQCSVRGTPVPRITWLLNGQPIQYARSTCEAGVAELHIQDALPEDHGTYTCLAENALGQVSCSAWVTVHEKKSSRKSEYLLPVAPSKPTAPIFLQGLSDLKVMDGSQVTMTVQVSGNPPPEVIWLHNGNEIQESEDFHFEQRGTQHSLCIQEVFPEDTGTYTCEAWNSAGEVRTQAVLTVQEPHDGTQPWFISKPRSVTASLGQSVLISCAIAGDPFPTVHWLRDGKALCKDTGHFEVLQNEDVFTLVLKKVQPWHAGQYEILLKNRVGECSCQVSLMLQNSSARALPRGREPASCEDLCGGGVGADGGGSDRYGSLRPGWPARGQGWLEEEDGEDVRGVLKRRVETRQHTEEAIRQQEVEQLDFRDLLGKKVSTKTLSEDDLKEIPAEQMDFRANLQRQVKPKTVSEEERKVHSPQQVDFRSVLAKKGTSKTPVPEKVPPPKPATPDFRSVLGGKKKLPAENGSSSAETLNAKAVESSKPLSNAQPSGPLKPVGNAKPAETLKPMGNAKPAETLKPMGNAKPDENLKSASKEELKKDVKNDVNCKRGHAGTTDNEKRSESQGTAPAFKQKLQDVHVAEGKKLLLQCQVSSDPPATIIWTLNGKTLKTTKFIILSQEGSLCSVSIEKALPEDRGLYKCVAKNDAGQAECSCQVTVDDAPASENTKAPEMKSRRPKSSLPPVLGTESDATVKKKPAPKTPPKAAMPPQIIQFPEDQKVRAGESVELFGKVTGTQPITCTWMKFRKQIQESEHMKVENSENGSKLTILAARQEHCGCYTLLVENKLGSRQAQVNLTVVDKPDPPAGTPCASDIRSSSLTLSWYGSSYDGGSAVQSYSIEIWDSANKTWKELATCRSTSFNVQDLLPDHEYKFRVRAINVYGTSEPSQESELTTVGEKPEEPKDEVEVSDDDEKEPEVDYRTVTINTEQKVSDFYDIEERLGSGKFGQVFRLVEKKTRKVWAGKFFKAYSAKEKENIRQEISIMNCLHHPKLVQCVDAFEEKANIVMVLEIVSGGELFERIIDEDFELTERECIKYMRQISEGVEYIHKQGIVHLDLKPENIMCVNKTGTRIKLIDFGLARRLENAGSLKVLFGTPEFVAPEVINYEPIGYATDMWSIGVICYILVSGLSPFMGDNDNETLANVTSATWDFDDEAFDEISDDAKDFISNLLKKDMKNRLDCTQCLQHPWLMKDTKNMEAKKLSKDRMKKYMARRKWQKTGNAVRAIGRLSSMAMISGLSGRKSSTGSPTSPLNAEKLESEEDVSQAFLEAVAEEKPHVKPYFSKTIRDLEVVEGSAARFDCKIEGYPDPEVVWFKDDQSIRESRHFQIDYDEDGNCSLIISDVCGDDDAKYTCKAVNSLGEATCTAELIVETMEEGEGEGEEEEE
# Chain of MAPKAPK2 (human) (P49137 whole entry, looked up): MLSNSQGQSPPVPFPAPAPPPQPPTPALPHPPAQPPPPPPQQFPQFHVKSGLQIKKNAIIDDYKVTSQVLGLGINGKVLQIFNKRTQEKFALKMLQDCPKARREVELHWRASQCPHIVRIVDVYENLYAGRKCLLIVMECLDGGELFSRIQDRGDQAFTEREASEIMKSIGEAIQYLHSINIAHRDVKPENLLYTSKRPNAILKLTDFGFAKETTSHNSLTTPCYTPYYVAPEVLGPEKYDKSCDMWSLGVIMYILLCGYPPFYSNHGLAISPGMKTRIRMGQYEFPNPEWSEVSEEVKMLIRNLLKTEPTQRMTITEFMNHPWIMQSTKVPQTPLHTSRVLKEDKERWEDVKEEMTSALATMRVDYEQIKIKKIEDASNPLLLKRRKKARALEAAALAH
# Chain of MARK3 (human) (P27448 whole entry, looked up): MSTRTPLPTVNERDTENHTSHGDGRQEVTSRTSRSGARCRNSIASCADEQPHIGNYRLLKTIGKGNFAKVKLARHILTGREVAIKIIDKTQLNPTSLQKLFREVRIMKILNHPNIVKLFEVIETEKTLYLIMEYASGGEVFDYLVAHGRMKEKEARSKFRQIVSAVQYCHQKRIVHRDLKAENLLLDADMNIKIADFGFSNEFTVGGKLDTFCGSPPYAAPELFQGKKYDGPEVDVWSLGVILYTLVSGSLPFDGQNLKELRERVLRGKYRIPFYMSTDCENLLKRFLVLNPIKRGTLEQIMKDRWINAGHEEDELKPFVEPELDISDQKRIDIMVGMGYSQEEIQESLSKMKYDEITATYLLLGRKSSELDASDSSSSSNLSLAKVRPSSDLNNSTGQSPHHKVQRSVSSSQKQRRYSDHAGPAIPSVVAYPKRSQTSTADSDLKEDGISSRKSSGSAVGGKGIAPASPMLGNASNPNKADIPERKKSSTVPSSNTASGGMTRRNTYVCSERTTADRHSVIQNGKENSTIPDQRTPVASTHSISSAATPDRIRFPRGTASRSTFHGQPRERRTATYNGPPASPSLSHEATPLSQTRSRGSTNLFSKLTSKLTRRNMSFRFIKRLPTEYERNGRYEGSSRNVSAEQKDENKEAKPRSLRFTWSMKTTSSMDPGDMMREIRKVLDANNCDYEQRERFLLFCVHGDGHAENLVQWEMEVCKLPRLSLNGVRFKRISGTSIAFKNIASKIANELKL
# Chain of BTK (human) (Q06187 whole entry, looked up): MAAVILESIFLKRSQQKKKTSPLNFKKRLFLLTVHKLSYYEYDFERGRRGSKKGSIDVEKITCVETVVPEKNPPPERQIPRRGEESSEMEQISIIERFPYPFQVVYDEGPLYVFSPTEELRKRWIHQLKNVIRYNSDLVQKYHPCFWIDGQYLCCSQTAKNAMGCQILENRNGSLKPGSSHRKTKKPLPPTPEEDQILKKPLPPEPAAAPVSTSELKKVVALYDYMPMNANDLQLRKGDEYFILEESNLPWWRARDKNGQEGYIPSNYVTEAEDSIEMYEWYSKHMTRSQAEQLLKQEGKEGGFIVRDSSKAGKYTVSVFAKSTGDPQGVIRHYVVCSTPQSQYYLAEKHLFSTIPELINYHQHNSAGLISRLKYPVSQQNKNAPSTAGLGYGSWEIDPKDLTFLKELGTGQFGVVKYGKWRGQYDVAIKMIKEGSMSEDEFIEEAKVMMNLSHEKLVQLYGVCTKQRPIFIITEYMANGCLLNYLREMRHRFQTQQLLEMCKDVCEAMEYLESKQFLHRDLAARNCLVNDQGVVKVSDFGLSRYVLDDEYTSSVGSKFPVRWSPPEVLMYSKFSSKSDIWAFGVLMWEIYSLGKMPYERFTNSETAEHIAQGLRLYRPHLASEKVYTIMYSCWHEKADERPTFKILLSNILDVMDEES
# Chain of PIM2 (human) (Q9P1W9 whole entry, looked up): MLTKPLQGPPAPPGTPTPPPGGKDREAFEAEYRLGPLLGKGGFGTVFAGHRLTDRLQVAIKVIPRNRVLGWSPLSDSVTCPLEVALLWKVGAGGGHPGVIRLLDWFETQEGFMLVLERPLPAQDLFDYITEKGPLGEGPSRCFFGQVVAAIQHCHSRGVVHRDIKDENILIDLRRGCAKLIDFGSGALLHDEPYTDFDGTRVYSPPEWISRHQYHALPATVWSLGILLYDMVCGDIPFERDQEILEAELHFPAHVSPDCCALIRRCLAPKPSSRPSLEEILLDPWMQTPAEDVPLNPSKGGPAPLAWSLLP
compound,measurement,setting,value
C[C@H]1CCCC(=O)CCC/C=C/c2cc(O)cc(O)c2C(=O)O1,residual activity,BTK (human); compound 1.0 µM,107%
same,residual activity,BTK (human); compound 10.0 µM,69%
same,residual activity,CDK2 CCNA2 (human); compound 1.0 µM,82%
same,residual activity,CDK2 CCNA2 (human); compound 10.0 µM,32%
same,residual activity,CHEK1 (human); compound 1.0 µM,92%
same,residual activity,CHEK1 (human); compound 10.0 µM,81%
same,residual activity,CSNK2A1 (human); compound 1.0 µM,97%
same,residual activity,CSNK2A1 (human); compound 10.0 µM,96%
same,residual activity,EEF2K (human); compound 1.0 µM,101%
same,residual activity,EEF2K (human); compound 10.0 µM,85%
same,residual activity,IKBKB (human); compound 1.0 µM,101%
same,residual activity,IKBKB (human); compound 10.0 µM,78%
same,residual activity,INSRR (human); compound 1.0 µM,75%
same,residual activity,INSRR (human); compound 10.0 µM,41%
same,residual activity,MAP2K1 (human); compound 1.0 µM,66%
same,residual activity,MAP2K1 (human); compound 10.0 µM,55%
same,residual activity,MAPK9 (human); compound 1.0 µM,46%
same,residual activity,MAPK9 (human); compound 10.0 µM,65%
same,residual activity,MAPKAPK2 (human); compound 1.0 µM,101%
same,residual activity,MAPKAPK2 (human); compound 10.0 µM,92%
same,residual activity,MARK3 (human); compound 1.0 µM,102%
same,residual activity,MARK3 (human); compound 10.0 µM,99%
same,residual activity,MKNK2 (human); compound 1.0 µM,64%
same,residual activity,MKNK2 (human); compound 10.0 µM,23%
same,residual activity,MYLK (human); compound 1.0 µM,104%
same,residual activity,MYLK (human); compound 10.0 µM,59%
same,residual activity,NEK6 (human); compound 1.0 µM,91%
same,residual activity,NEK6 (human); compound 10.0 µM,91%
same,residual activity,PAK6 (human); compound 1.0 µM,99%
same,residual activity,PAK6 (human); compound 10.0 µM,94%
same,residual activity,PIM1 (human); compound 1.0 µM,51%
same,residual activity,PIM1 (human); compound 10.0 µM,11%
same,residual activity,PIM2 (human); compound 1.0 µM,86%
same,residual activity,PIM2 (human); compound 10.0 µM,45%
same,residual activity,PIM3 (human); compound 1.0 µM,49%
same,residual activity,PIM3 (human); compound 10.0 µM,18%
same,residual activity,PKN2 (human); compound 1.0 µM,70%
same,residual activity,PKN2 (human); compound 10.0 µM,33%
same,residual activity,RPS6KA5 KD1 KD2 (human),36%
same,residual activity,[1]; compound 1.0 µM,106%
same,residual activity,[1]; compound 10.0 µM,61%
same,residual activity,SRPK1 (human); compound 1.0 µM,95%
same,residual activity,SRPK1 (human); compound 10.0 µM,89%
same,residual activity,STK3 (human); compound 1.0 µM,119%
same,residual activity,STK3 (human); compound 10.0 µM,113%
same,residual activity,TBK1 (human); compound 1.0 µM,82%
same,residual activity,TBK1 (human); compound 10.0 µM,80%
same,residual activity,YES1 (human); compound 1.0 µM,79%
same,residual activity,YES1 (human); compound 10.0 µM,35%
